Measurements taken from the NIST ThermoML archive (doi:10.1016/j.jct.2018.02.022).

Test: xn = mol fraction of the nth substance listed
Conditions: 92.3 kPa, Liquid; for viscosity: Concentric cylinders viscometry; for speed of sound: Frequency=3 MHz, Single path-length method; for mass density: Vibrating tube method

OCCOCCO [diethylene glycol] + O
Conditions	mass density, 293.15 K [kg/m3]	mass density, 298.15 K [kg/m3]	speed of sound, 293.15 K [m/s]	speed of sound, 298.15 K [m/s]	viscosity, 293.15 K [mPa·s]	viscosity, 298.15 K [mPa·s]
x1 = 0.0097	1006.17	1004.88	1511.2	1523	–	–
x1 = 0.0201	1013.77	1012.33	1539.6	1549.1	–	–
x1 = 0.0297	1020.4	1018.8	1563.6	1571.1	–	–
x1 = 0.0397	1026.98	1025.23	1586.2	1591.7	–	–
x1 = 0.049	1032.59	1030.67	–	–	2.119	1.717
x1 = 0.0502	1033.24	1031.33	1607.7	1611.3	–	–
x1 = 0.0591	1038.24	1036.19	1624	1626.1	–	–
x1 = 0.0703	1044.16	1041.95	1642.5	1643	–	–
x1 = 0.0796	1048.67	1046.34	1655.5	1654.7	–	–
x1 = 0.0897	1053.15	1050.7	1667.9	1665.9	–	–
x1 = 0.0992	1057.14	1054.62	–	–	3.602	2.877
x1 = 0.1004	1057.71	1055.14	1679.7	1676.5	–	–
x1 = 0.149	1074.04	1071.09	–	–	5.458	4.314
x1 = 0.1507	1074.47	1071.48	1713	1705.9	–	–
x1 = 0.1996	1085.68	1082.45	1723.9	1714.7	–	–
x1 = 0.1998	1085.89	1082.66	–	–	7.66	6.022
x1 = 0.2467	1093.59	1090.21	1723	1712.6	–	–
x1 = 0.249	1093.81	1090.4	–	–	10.04	7.847
x1 = 0.2943	1098.86	1095.38	1716.6	1705.5	–	–
x1 = 0.2987	1099.44	1095.93	–	–	12.55	9.772
x1 = 0.3501	1103.6	1100.05	–	–	15.18	11.79
x1 = 0.3511	1103.73	1100.19	1705.1	1693.5	–	–
x1 = 0.3995	1106.65	1103.05	1694	1682.2	–	–
x1 = 0.4007	1106.63	1103.05	–	–	17.72	13.74
x1 = 0.4504	1108.9	1105.32	–	–	20.13	15.59
x1 = 0.4527	1109.08	1105.5	1681.7	1669.8	–	–
x1 = 0.4973	1110.6	1107.02	–	–	22.3	17.24
x1 = 0.5008	1110.76	1107.17	1670.7	1658.7	–	–
x1 = 0.5449	1111.95	1108.36	1661.5	1649.4	–	–
x1 = 0.553	1112.18	1108.61	–	–	24.68	19.07
x1 = 0.5834	1112.81	1109.23	1653.4	1641.4	–	–
x1 = 0.5938	1113.09	1109.52	–	–	26.23	20.23
x1 = 0.6482	1113.95	1110.37	1640.7	1628.7	–	–
x1 = 0.6514	1114.07	1110.49	–	–	28.3	21.86
x1 = 0.6864	1114.52	1110.94	–	–	29.45	22.7
x1 = 0.6982	1114.6	1111.02	1632.2	1620.2	–	–
x1 = 0.7444	1115.11	1111.54	1624.4	1612.5	–	–
x1 = 0.7556	1115.19	1111.61	–	–	31.37	24.17
x1 = 0.7962	1115.57	1112.01	1616.7	1604.8	–	–
x1 = 0.7999	1115.52	1111.95	–	–	32.41	24.94
x1 = 0.8401	1115.89	1112.33	1610.4	1598.5	–	–
x1 = 0.8525	1115.89	1112.33	–	–	33.47	25.8
x1 = 0.8947	1116.23	1112.67	1603.3	1591.5	–	–
x1 = 0.9002	1116.23	1112.68	–	–	34.4	26.49
x1 = 0.9092	1116.32	1112.76	1601.5	1589.6	–	–
x1 = 0.919	1116.37	1112.81	1600.2	1588.4	–	–
x1 = 0.9303	1116.39	1112.85	1599.1	1587.2	–	–
x1 = 0.9393	1116.4	1112.85	1598	1586.2	–	–
x1 = 0.9473	1116.5	1112.94	1597.2	1585.3	–	–
x1 = 0.9554	1116.57	1113.02	–	–	35.26	27.15
x1 = 0.9566	1116.55	1112.99	1596	1584.1	–	–
x1 = 0.9694	1116.6	1113.04	1594.6	1582.7	–	–
x1 = 0.9801	1116.65	1113.09	1593.4	1581.5	–	–
x1 = 0.9915	1116.69	1113.13	1592.1	1580.3	–	–
x1 = 1	1116.73	1113.17	1591	1579.1	35.89	27.67
